Measurements taken from patent publication US6352833B1, “Methods for discovery of vasoactive compounds for the nitric oxide-cyclic GMP signal pathway” (priority 1999, dated 2002).

Experiments:
[1] = tested on: TXA2-specific GTPase in human platelet membranes; experiment: TXA2 receptor-coupled GTPase activity in human platelet membranes; assay type: biochemical
Method: Platelets were prepared from plateletpheresis units as described (Benka, M. L. et al., 1995, supra; Zhu, Y. et al., 1994, supra).
TXA2-stimulated GTPase activity was measured in platelet membranes by initiating reactions by the addition of 20-45 μg of platelet membranes to tubes in the absence or presence of 10 μM of the thromboxane analog, U46619, (Benka, M. L. et al., The MBL Physiology Course, Busa, W. B. & Mendelsohn, M. E., 1995, FEBS Lett. 363: 49-52). The final reaction mixture (total volume=100 μl) contained 0.4 μM GTP, including 0.6-0.9 μCi of [γ-^32P]GTP(1.5-2×10^6 dpm), as well as 100 mM NaCl, 0.1 mM EGTA, 2 mM MgCl2, 1 mM dithiothreitol, 0.1 mM ATP, 5 mM phosphocreatine, 100 units/ml creatine phosphokinase, 0.2% bovine serum albumin, 50 mM triethanolamine HCl, pH 7.4, and indicated concentrations of agonist.
[…] GTPase reactions were terminated with 5% activated charcoal/20 mM phosphoric acid, and high affinity GTPase activity was measured and calculated (Shenker, A. et al., 1991, J. Biol. Chem. 268: 26011-26017; Benka et al., supra).

Gαq/Gα11 = experiment: Immunoprecipitation of Gαq/Gα11 from 32P-labeled platelets; assay type: cell-based, human; settings: 32P-labeled platelets treated with compound
Source text: (§1) In separate immunoprecipitation experiments, we also examined whether Gαq/Gα11 or its effector PLCβ, were phosphorylated in response to NO or cGMP. Anti-Gαq/Gα11 antibodies were obtained from D. Manning (University of Pennsylvania; Woolkalis, M. J. et al., 1986, J. Biol. Chem. 261:3408-3413).

TXA2 receptor = molecular target: T1, TXA2 receptor (Homo sapiens, UniProt P21731); experiment: In vivo phosphorylation of TXA2 receptors in 32P-labeled HEL cells; assay type: cell-based
T1 construct: HEL cells, which contain high densities of the platelet TXA2 receptor; endogenous in cells; host or cells: HEL cells
T1 sequence (P21731 1-343): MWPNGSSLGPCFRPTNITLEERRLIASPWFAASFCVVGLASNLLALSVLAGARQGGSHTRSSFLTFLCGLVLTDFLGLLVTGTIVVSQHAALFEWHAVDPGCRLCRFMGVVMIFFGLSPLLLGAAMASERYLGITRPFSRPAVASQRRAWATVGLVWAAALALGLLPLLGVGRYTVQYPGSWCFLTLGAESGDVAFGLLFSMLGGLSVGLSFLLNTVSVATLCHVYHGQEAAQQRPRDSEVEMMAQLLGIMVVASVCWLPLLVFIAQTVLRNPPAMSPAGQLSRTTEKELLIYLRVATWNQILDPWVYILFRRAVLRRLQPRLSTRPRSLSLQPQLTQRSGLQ
Method: To examine whether cGMP can lead to phosphorylation of TXA2 receptors in vivo, studies were performed using HEL cells, which contain high densities of the platelet TXA2 receptor (Allan, C. J. et al., 1996, J. Pharmacol. Exp. Ther. 277:1132-1139; Mayeux, P. R. et al., 1989, J. Pharmacol. Exp. Ther. 250:923-927).
HEL cells were labeled with ^32P (Mendelsohn, M. E. et al., 1991, supra) and then exposed to buffer alone (10 minutes), U46619 (5 μM, 10 minutes), or 8-Br-cGMP (10 mM, 15 minutes). Reactions were terminated by addition of ice-cold TEB buffer: 20 mM Tris-Cl, pH 7.4, 5 mM EGTA, 0.128 mg/ml phenylmethylsulfonyl fluoride, 0.15 mg/ml benzamidine Cl, followed by preparation of solubilized TXA2 receptor fractions in CHAPS buffer: 20 mM Tris-Cl, pH 7.4, 5 mM EGTA, 25% glycerol, 0.128 mg/ml phenylmethylsulfonyl fluoride, 0.15 mg/ml benzamidine Cl, 10 mM CHAPS (Schror, K. et al., 1995, Biochem. Pharmacol. 49: 921-927). TXA2 receptor fractions were then purified on and eluted from TXA2 antibody affinity beads, resolved by SDS-PAGE, and transferred to nitrocellulose. Receptor was quantified by immunoblotting and phosphorylation was quantitated by PhosphorImager analysis (Mendelsohn, M. E. et al., 1991, supra). […]

PLCβ = PLCβ phosphorylation in platelets (PLCβ antibodies); assay type: cell-based, human; settings: monoclonal and polyclonal PLCβ antibodies
Source text: as §1

thrombin receptor = experiment: Thrombin receptor-mediated vascular smooth muscle cell activation; assay type: cell-based; settings: FIG. 6A-6C; effect reversed by inhibition of G kinase
Source text: The activation of vascular smooth muscle cells by thrombin receptor is inhibited by nitric oxide (FIG. 6A). […] This effect is reversed by inhibition by G kinase.

Structure (SMILES) | Gαq/Gα11 G protein phosphorylation (Gαq/Gα11) | phosphorylation of PLCβ (PLCβ) | inhibition of thrombin receptor-mediated vascular smooth muscle cell activation (thrombin receptor) | further results
Nc1nc2c(nc(Br)n2[C@@H]2O[C@@H]3COP(=O)(O)O[C@H]3[C@H]2O)c(=O)[nH]1 [8-Br-cGMP, 8-bromo-cyclic GMP] | did not demonstrate any significant G protein phosphorylation |  |  | IC50 ([1]; platelet membranes pretreated 10 minutes at room temperature before U46619 stimulation, n=3 experiments in triplicate, read-out: mean IC50, inhibition of U46619-stimulated GTPase activity): 0.075 µM; decrease of basal platelet membrane GTPase activity ([1]; pretreatment with 500 μm 8-Br-cGMP, n=4): 8±9%; TXA2 receptor phosphorylation (TXA2 receptor; 10 mM, 15 minutes): clear and significant increases in TXA2 receptor phosphorylation to a level comparable with agonist-induced phosphorylation
CC(=O)N[C@@H](CSN=O)C(=O)O [S-nitroso-N-acetylcysteine] | did not demonstrate any significant G protein phosphorylation |  |  | 
CCCCC[C@H](O)/C=C/[C@@H]1[C@@H](C/C=C\CCCC(=O)O)[C@H]2CO[C@@H]1C2 [U46619] |  |  |  | average increase in GTPase activity (stimulation of TXA2-specific GTPase) ([1]; untreated platelet membranes, 10 μM U46619, n=three experiments in triplicate): 5.5±1.3 pmol of 32P/min/mg platelet pr; TXA2 receptor phosphorylation (TXA2 receptor; 5 μM, 10 minutes): phosphorylated
Nc1nc2c(ncn2[C@@H]2O[C@@H]3COP(=O)(O)O[C@H]3[C@H]2O)c(=O)[nH]1 [cyclic GMP] |  | no increase in phosphorylation of PLCβ | inhibition | 
[N]=O [nitric oxide] |  | no increase in phosphorylation of PLCβ | inhibited | 
